According to patent US20050113292A1 (priority 2003, published 2005):

Experiments:
[1] = test system: HIV-1 mediated cell-cell fusion (R8 virus); details: mediated cell-cell fusion (R8 virus)
T-tropic (R8) HIV-1 = details: T-tropic (R8)
M-tropic (BAL) HIV-1 = details: M-tropic (BAL)

CC[C@H](C)[C@H](NC(=O)[C@@H]1CSC(C(=O)NCCCC[C@H](NC(=O)CCNC(=O)C2N[C@H](C(=O)N[C@H](C(=O)N[C@@H](CCC(=O)O)C(=O)N[C@@H](CCC(=O)O)C(=O)N[C@@H](CO)C(=O)N[C@@H](CCC(N)=O)C(=O)N[C@@H](CC(N)=O)C(=O)N[C@@H](CCC(N)=O)C(=O)N[C@@H](CCC(N)=O)C(=O)N[C@@H](CCC(=O)O)C(=O)N[C@@H](CCCCN)C(=O)N[C@@H](CC(N)=O)C(=O)N[C@@H](CCC(=O)O)C(=O)N[C@@H](CCC(N)=O)C(=O)N[C@@H](CCC(=O)O)C(=O)N[C@@H](CC(C)C)C(=O)N[C@@H](CC(C)C)C(=O)O)[C@@H](C)CC)CS2)C(=O)N[C@@H](CCCCNC(=O)CNC(=O)C2N[C@H](C(=O)N[C@H](C(=O)N[C@@H](CCC(=O)O)C(=O)N[C@@H](CCC(=O)O)C(=O)N[C@@H](CO)C(=O)N[C@@H](CCC(N)=O)C(=O)N[C@@H](CC(N)=O)C(=O)N[C@@H](CCC(N)=O)C(=O)N[C@@H](CCC(N)=O)C(=O)N[C@@H](CCC(=O)O)C(=O)N[C@@H](CCCCN)C(=O)N[C@@H](CC(N)=O)C(=O)N[C@@H](CCC(=O)O)C(=O)N[C@@H](CCC(N)=O)C(=O)N[C@@H](CCC(=O)O)C(=O)N[C@@H](CC(C)C)C(=O)N[C@@H](CC(C)C)C(=O)O)[C@@H](C)CC)CS2)C(=O)N[C@@H](CO)C(=O)N[C@@H](CO)C(=O)N[C@@H](C)C(N)=O)N1)C(=O)N[C@@H](CCC(=O)O)C(=O)N[C@@H](CCC(=O)O)C(=O)N[C@@H](CO)C(=O)N[C@@H](CCC(N)=O)C(=O)N[C@@H](CC(N)=O)C(=O)N[C@@H](CCC(N)=O)C(=O)N[C@@H](CCC(N)=O)C(=O)N[C@@H](CCC(=O)O)C(=O)N[C@@H](CCCCN)C(=O)N[C@@H](CC(N)=O)C(=O)N[C@@H](CCC(=O)O)C(=O)N[C@@H](CCC(N)=O)C(=O)N[C@@H](CCC(=O)O)C(=O)N[C@@H](CC(C)C)C(=O)N[C@@H](CC(C)C)C(=O)O (stereo partly drawn) [Compound 3α-C16]
IC50 [1]: > 1000 nM | IC50 (T-tropic (R8) HIV-1): > 1000 nM | IC50 (M-tropic (BAL) HIV-1): 124 nM

CC(C)C[C@H](NC(=O)[C@H](CO)NC(=O)[C@H](C)NC(=O)[C@H](Cc1c[nH]c2ccccc12)NC(=O)[C@H](CCCCN)NC(=O)[C@H](CC(=O)O)NC(=O)[C@H](CC(C)C)NC(=O)[C@H](CCC(=O)O)NC(=O)[C@H](CC(C)C)NC(=O)[C@@H]1CSC(C(=O)NCCCC[C@H](NC(=O)CCNC(=O)C2N[C@H](C(=O)N[C@@H](CC(C)C)C(=O)N[C@@H](CCC(=O)O)C(=O)N[C@@H](CC(C)C)C(=O)N[C@@H](CC(=O)O)C(=O)N[C@@H](CCCCN)C(=O)N[C@@H](Cc3c[nH]c4ccccc34)C(=O)N[C@@H](C)C(=O)N[C@@H](CO)C(=O)N[C@@H](CC(C)C)C(=O)N[C@@H](Cc3c[nH]c4ccccc34)C(=O)N[C@@H](CC(N)=O)C(=O)N[C@@H](Cc3c[nH]c4ccccc34)C(=O)N[C@@H](Cc3ccccc3)C(=O)O)CS2)C(=O)N[C@@H](CO)C(=O)N[C@@H](CO)C(=O)N[C@@H](C)C(N)=O)N1)C(=O)N[C@@H](Cc1c[nH]c2ccccc12)C(=O)N[C@@H](CC(N)=O)C(=O)N[C@@H](Cc1c[nH]c2ccccc12)C(=O)N[C@@H](Cc1ccccc1)C(=O)O (stereo partly drawn) [Compound 2α-C13]
IC50 [1]: 290 nM | IC50 (T-tropic (R8) HIV-1): 310 nM | IC50 (M-tropic (BAL) HIV-1): 430 nM

CC(C)C[C@H](NC(=O)[C@H](CO)NC(=O)[C@H](C)NC(=O)[C@H](Cc1c[nH]c2ccccc12)NC(=O)[C@H](CCCCN)NC(=O)[C@H](CC(=O)O)NC(=O)[C@H](CC(C)C)NC(=O)[C@H](CCC(=O)O)NC(=O)[C@H](CC(C)C)NC(=O)[C@@H]1CSC(C(=O)NCCCC[C@H](NC(=O)CCNC(=O)C2N[C@H](C(=O)N[C@@H](CC(C)C)C(=O)N[C@@H](CCC(=O)O)C(=O)N[C@@H](CC(C)C)C(=O)N[C@@H](CC(=O)O)C(=O)N[C@@H](CCCCN)C(=O)N[C@@H](Cc3c[nH]c4ccccc34)C(=O)N[C@@H](C)C(=O)N[C@@H](CO)C(=O)N[C@@H](CC(C)C)C(=O)N[C@@H](Cc3c[nH]c4ccccc34)C(=O)N[C@@H](CC(N)=O)C(=O)N[C@@H](Cc3c[nH]c4ccccc34)C(=O)N[C@@H](Cc3ccccc3)C(=O)O)CS2)C(=O)N[C@@H](CCCCNC(=O)CNC(=O)C2N[C@H](C(=O)N[C@@H](CC(C)C)C(=O)N[C@@H](CCC(=O)O)C(=O)N[C@@H](CC(C)C)C(=O)N[C@@H](CC(=O)O)C(=O)N[C@@H](CCCCN)C(=O)N[C@@H](Cc3c[nH]c4ccccc34)C(=O)N[C@@H](C)C(=O)N[C@@H](CO)C(=O)N[C@@H](CC(C)C)C(=O)N[C@@H](Cc3c[nH]c4ccccc34)C(=O)N[C@@H](CC(N)=O)C(=O)N[C@@H](Cc3c[nH]c4ccccc34)C(=O)N[C@@H](Cc3ccccc3)C(=O)O)CS2)C(=O)N[C@@H](CO)C(=O)N[C@@H](CO)C(=O)N[C@@H](C)C(N)=O)N1)C(=O)N[C@@H](Cc1c[nH]c2ccccc12)C(=O)N[C@@H](CC(N)=O)C(=O)N[C@@H](Cc1c[nH]c2ccccc12)C(=O)N[C@@H](Cc1ccccc1)C(=O)O (stereo partly drawn) [Compound 3α-C13]
IC50 [1]: 260 nM | IC50 (T-tropic (R8) HIV-1): 430 nM | IC50 (M-tropic (BAL) HIV-1): 430 nM

CC[C@H](C)[C@H](NC(=O)[C@H](CC(C)C)NC(=O)[C@H](CO)NC(=O)[C@H](Cc1c[nH]cn1)NC(=O)[C@@H](NC(=O)[C@H](CC(C)C)NC(=O)[C@H](CO)NC(=O)[C@@H](NC(=O)[C@H](Cc1ccc(O)cc1)NC(=O)[C@H](CC(N)=O)NC(=O)[C@H](CC(N)=O)NC(=O)[C@@H](NC(=O)[C@@H]1CSC(C(=O)NCCCC[C@H](NC(=O)CCNC(=O)C2N[C@H](C(=O)N[C@H](C(=O)N[C@@H](CC(N)=O)C(=O)N[C@@H](CC(N)=O)C(=O)N[C@@H](Cc3ccc(O)cc3)C(=O)N[C@H](C(=O)N[C@@H](CO)C(=O)N[C@@H](CC(C)C)C(=O)N[C@H](C(=O)N[C@@H](Cc3c[nH]cn3)C(=O)N[C@@H](CO)C(=O)N[C@@H](CC(C)C)C(=O)N[C@H](C(=O)N[C@@H](CCC(=O)O)C(=O)N[C@@H](CCC(=O)O)C(=O)N[C@@H](CO)C(=O)N[C@@H](CCC(N)=O)C(=O)N[C@@H](CC(N)=O)C(=O)N[C@@H](CCC(N)=O)C(=O)N[C@@H](CCC(N)=O)C(=O)N[C@@H](CCC(=O)O)C(=O)N[C@@H](CCCCN)C(=O)N[C@@H](CC(N)=O)C(=O)N[C@@H](CCC(=O)O)C(=O)N[C@@H](CCC(N)=O)C(=O)N[C@@H](CCC(=O)O)C(=O)N[C@@H](CC(C)C)C(=O)N[C@@H](CC(C)C)C(=O)O)[C@@H](C)CC)[C@@H](C)CC)[C@@H](C)O)[C@@H](C)CC)CS2)C(=O)N[C@@H](CCCCNC(=O)CNC(=O)C2N[C@H](C(=O)N[C@H](C(=O)N[C@@H](CC(N)=O)C(=O)N[C@@H](CC(N)=O)C(=O)N[C@@H](Cc3ccc(O)cc3)C(=O)N[C@H](C(=O)N[C@@H](CO)C(=O)N[C@@H](CC(C)C)C(=O)N[C@H](C(=O)N[C@@H](Cc3c[nH]cn3)C(=O)N[C@@H](CO)C(=O)N[C@@H](CC(C)C)C(=O)N[C@H](C(=O)N[C@@H](CCC(=O)O)C(=O)N[C@@H](CCC(=O)O)C(=O)N[C@@H](CO)C(=O)N[C@@H](CCC(N)=O)C(=O)N[C@@H](CC(N)=O)C(=O)N[C@@H](CCC(N)=O)C(=O)N[C@@H](CCC(N)=O)C(=O)N[C@@H](CCC(=O)O)C(=O)N[C@@H](CCCCN)C(=O)N[C@@H](CC(N)=O)C(=O)N[C@@H](CCC(=O)O)C(=O)N[C@@H](CCC(N)=O)C(=O)N[C@@H](CCC(=O)O)C(=O)N[C@@H](CC(C)C)C(=O)N[C@@H](CC(C)C)C(=O)O)[C@@H](C)CC)[C@@H](C)CC)[C@@H](C)O)[C@@H](C)CC)CS2)C(=O)N[C@@H](CO)C(=O)N[C@@H](CO)C(=O)N[C@@H](C)C(N)=O)N1)[C@@H](C)CC)[C@@H](C)O)[C@@H](C)CC)C(=O)N[C@@H](CCC(=O)O)C(=O)N[C@@H](CCC(=O)O)C(=O)N[C@@H](CO)C(=O)N[C@@H](CCC(N)=O)C(=O)N[C@@H](CC(N)=O)C(=O)N[C@@H](CCC(N)=O)C(=O)N[C@@H](CCC(N)=O)C(=O)N[C@@H](CCC(=O)O)C(=O)N[C@@H](CCCCN)C(=O)N[C@@H](CC(N)=O)C(=O)N[C@@H](CCC(=O)O)C(=O)N[C@@H](CCC(N)=O)C(=O)N[C@@H](CCC(=O)O)C(=O)N[C@@H](CC(C)C)C(=O)N[C@@H](CC(C)C)C(=O)O (stereo partly drawn) [Compound 3α-C27]
IC50 [1]: 2.8 nM | IC50 (T-tropic (R8) HIV-1): 380 nM | IC50 (M-tropic (BAL) HIV-1): 0.5 nM
